From PubChem BioAssay (NCI)
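These data come from cells grown in 96-well plates and exposed to compound for 48 hours at five concentrations. Here, GI50 denotes the concentration required for 50% inhibition of growth. TGI: concentration producing complete growth inhibition.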

Legend:
Experiment in all cases: NCI-60 cell line screen, 48 h
A498 renal = tested on: A498 renal
HCT-15 colon = tested on: HCT-15 colon
KM12 colon = tested on: KM12 colon
NCI-H23 lung = tested on: NCI-H23 lung
RPMI-8226 leukemia = tested on: RPMI-8226 leukemia
RXF 393 renal = tested on: RXF 393 renal
SF-539 CNS = tested on: SF-539 CNS
SK-MEL-2 melanoma = tested on: SK-MEL-2 melanoma
SK-MEL-28 melanoma = tested on: SK-MEL-28 melanoma
T-47D breast = tested on: T-47D breast

Row | SMILES | GI50 (A498 renal) [µM] | TGI (A498 renal) [µM] | GI50 (HCT-15 colon) [µM] | TGI (HCT-15 colon) [µM] | GI50 (KM12 colon) [µM] | TGI (KM12 colon) [µM] | GI50 (NCI-H23 lung) [µM] | TGI (NCI-H23 lung) [µM] | GI50 (RPMI-8226 leukemia) [µM] | TGI (RPMI-8226 leukemia) [µM] | GI50 (RXF 393 renal) [µM] | TGI (RXF 393 renal) [µM] | GI50 (SF-539 CNS) [µM] | TGI (SF-539 CNS) [µM] | GI50 (SK-MEL-2 melanoma) [µM] | TGI (SK-MEL-2 melanoma) [µM] | GI50 (SK-MEL-28 melanoma) [µM] | TGI (SK-MEL-28 melanoma) [µM] | GI50 (T-47D breast) [µM] | TGI (T-47D breast) [µM]
1 | O=C1/C(=C/c2ccccc2)CN(CCC(=O)N2C/C(=C\c3ccccc3)C(=O)/C(=C/c3ccccc3)C2)C/C1=C\c1ccccc1 | 1.5 | 17.8 | 0.906 | 45.1 | 0.911 | 7.48 | 11.5 | 33.5 | 0.046 | 0.5 | 6.65 | 19.9 | 13.9 | 50.6 | 17.5 | 38.1 | 23.4 | 74.5 | 13.5 | 75.3
2 | N#C/C(=C/C=C/c1ccccc1)S(=O)c1ccccc1 (stereo not given) | 1.61 | 3.13 | 0.211 | 0.638 | 0.594 | 2.17 | 0.461 | 2.31 | 0.351 | 1.32 | 0.385 | 1.47 | 0.267 | 1.07 | 2.09 | 5.62 | 0.565 | 1.96 | 0.298 | 5.62
3 | CN(C)CCCN=c1cc2c(=O)n(CCCN(C)C)c(=O)c3c(NCCCN(C)C)cc4c(O)n(CCCN(C)C)c(=O)c1c4c3-2 | 1.15 | 3.92 | 4.3 | 46.4 | 2.36 | 16.4 | 5.39 | 25.5 | 4.18 | 46.1 | 1.77 | 4.44 | 2.33 | 11 | 1.37 | 5.08 | 1.96 | 4.79 | 2.35 | 16.9
4 | ClC1(c2ccccc2)c2ccc(Br)cc2-c2cc(Br)ccc21 | – | 32.8 | – | 33.8 | – | 38.5 | – | 29.3 | – | 64.8 | – | 36.6 | – | 33.3 | – | 32.5 | – | 35.8 | – | 58.3
5 | N/C(=N\c1nc2ccccc2s1)NC(=O)Nc1ccccc1Cl | 0.0818 | 0.579 | 0.0643 | 18.9 | 0.127 | 12 | 0.305 | 18.2 | 0.144 | 9.28 | 0.0983 | 1.56 | 0.0853 | 0.834 | 3.24 | > 61.3 | 3.59 | > 100 | 0.557 | > 100
6 | Cc1ccc(NC(=O)CC/C(CC(=O)c2ccc(Cl)cc2)=N\NC(=O)C(=O)NN)cc1C | – | > 100 | – | > 100 | – | > 100 | – | > 100 | – | > 100 | – | > 100 | – | > 100 | – | > 100 | – | > 100 | – | –
7 | CC1(C)CCC2(C(=O)O)CC[C@]3(C)C(=CCC4C5(C)CC[C@H](OC6OC(C(=O)O)C(O)C(OC7OC(CO)C(O)C(O)C7O)C6OC6OC(CO)C(O)C(O)C6O)C(C)(C)C5CCC43C)C2C1 (stereo not given in full) | > 100 | > 100 | 94.6 | > 100 | > 100 | > 100 | 20.2 | 42.7 | 50.9 | > 100 | > 100 | > 100 | > 100 | > 100 | > 100 | > 100 | – | – | > 100 | > 100
8 | COc1ccc(-c2csc(NC(=O)N3CCN(c4cc5c(cc4F)c(=O)c(C(=O)O)cn5C4CC4)CC3)n2)cc1 | 2.59 | 15.6 | 2.86 | > 100 | 1.63 | > 100 | – | – | – | – | 3.03 | 23.4 | 1.8 | > 100 | 2.42 | 7.1 | – | – | 1.57 | > 100
9 | O=C(c1cc2c(C(F)(F)F)onc2c2ccccc12)C(F)(F)F | – | 34.9 | – | > 29 | – | 52.9 | – | 4.25 | – | 12.8 | – | 17.4 | – | 15.8 | – | 13.6 | – | > 75.1 | – | –
10 | CCn1cc(C(=O)N/N=C/c2cccc(F)c2)c(=O)c2cc(F)c(N3CCNC(C)C3)c(F)c21 (stereo not given) | 1.28 | 6.36 | 1.46 | 2.84 | 1.83 | 3.39 | 1.83 | 3.45 | 1.79 | 3.77 | 1.69 | 3.22 | 1.59 | 2.96 | 1.97 | 3.86 | – | – | 1.61 | 3.25
11 | Cc1[nH]c2ccccc2c1C1CC(=O)NC1=O (stereo not given) | – | > 100 | – | > 100 | – | > 100 | – | > 100 | – | > 100 | – | > 100 | – | > 100 | – | > 100 | – | > 100 | – | –
12 | COc1cc([C@@H]2c3cc4c(cc3[C@@H](NCc3ccc(C#N)cc3)C3COC(=O)[C@@H]32)OCO4)cc(OC)c1O (stereo not given in full) | – | 3.84 | – | 3.01 | – | 3.78 | – | 1.43 | – | 5.07 | – | 21.5 | – | 2.36 | – | 6.54 | – | 15.2 | – | –
13 | N#Cc1ccc(-c2nc3ccc(Cl)cc3[nH]2)cc1 | – | – | – | > 100 | – | > 100 | – | – | – | > 100 | – | > 100 | – | > 100 | – | > 100 | – | – | – | > 100
14 | CC1=C2C(=O)C(C)(C)C=C2C(=O)[C@](C)(O)C12CC2 | – | > 1 | – | > 1 | – | > 1 | – | > 1 | – | > 1 | – | > 1 | – | > 1 | – | > 1 | – | > 1 | – | –
15 | c1ccc2c(c1)nnn2CNc1ccc(N2CCOCC2)cc1 | – | > 100 | – | > 100 | – | > 100 | – | > 100 | – | > 100 | – | > 100 | – | > 100 | – | > 100 | – | > 100 | – | –
16 | CC(C)Cc1ccc(C(C)/C=C2\CCC(CN3CCCC3)C2=O)cc1 (stereo not given) | – | 36.5 | – | 13.3 | – | 7.74 | – | 26.6 | – | 5.53 | – | 34.3 | – | 15.4 | – | 31.8 | – | 28.4 | – | –
